Test results from patent US20100029724A1, “SCREENING METHOD” (Takeda Pharmaceutical Company Limited, priority 2006, published 2010).

Columns and labels:
[1] = target: T1, human recombinant ferrochelatase (Homo sapiens, UniProt P22830); test: Measurement of ferrochelatase activity (zinc-protoporphyrin IX production, fluorescence); assay type: biochemical; conditions: compound 3 μM, mean±SD, n=8, control group 0.377 ± 0.010
T1 construct: attached to the N terminal of the human FeCh Mature region (55th-423rd amino acid residues); Nus-Tag (N, cleaved yes); His-Tag (N, cleaved yes); made in house; host or cells: Escherichia coli BL21 (DE3)
T1 sequence (P22830 55-423): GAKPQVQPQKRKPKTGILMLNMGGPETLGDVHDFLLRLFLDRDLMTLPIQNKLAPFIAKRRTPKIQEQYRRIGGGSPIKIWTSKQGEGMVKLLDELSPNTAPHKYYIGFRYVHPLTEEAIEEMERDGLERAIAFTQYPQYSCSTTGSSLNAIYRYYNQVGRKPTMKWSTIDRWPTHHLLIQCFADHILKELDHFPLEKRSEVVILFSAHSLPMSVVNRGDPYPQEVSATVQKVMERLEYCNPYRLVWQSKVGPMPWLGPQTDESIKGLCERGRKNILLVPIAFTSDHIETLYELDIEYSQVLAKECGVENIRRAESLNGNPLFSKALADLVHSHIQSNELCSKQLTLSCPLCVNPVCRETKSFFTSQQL
Protocol: Using human FeCh gene (Invitrogen) as a template, PCR was performed using the following primer 1 (SEQ ID NO: 3) and primer 2 (SEQ ID NO: 4). Pyrobest DNA polymerase (TAKARA SHUZO CO., LTD.) was used for the PCR, and extension reactions were performed under the conditions of (1) 95° C. 1 min, then (2) 30 cycles of 96° C. 15 sec, 60° C. 30 sec, 72° C. 90 sec, then (3) 72° C. for 7 min. After the reaction, the amplification product was inserted into pCR-Blunt II-TOPO (Invitrogen) and cloned. The obtained plasmid was digested with Bgl II and Xho I to recover inserted fragments. The fragments were inserted into the Bam HI/Xho I site of pET43.1a (Novagen) to give an expression vector pET43.1a-hFeCh encoding a protein with Nus-Tag and His-Tag attached to the N terminal of the human FeCh Mature region (55th-423rd amino acid residues).
The expression vector pET43.1a-hFeCh constructed in the above-mentioned A1 was introduced into Escherichia coli BL21 (DE3) Competent Cell (Stratagene) to give an expression strain. […]
The cells obtained in the above-mentioned A2 were suspended in Blue column Buffer (10 mM Tris-HCl (pH 8.1), 0.5 M NaCl, 10% Glycerol, 1% Triton X-100, 5 mM 2-Mercaptoethanol (2-ME), 250 ml) containing Protease Cocktail (Complete, EDTA-free; Roche). […] As a result of protein quantification (CBB method; Pierce), the total protein amount of about 8 mg of human FeCh was obtained. […]

[2] = system: cytochrome c oxidase activity of high glucose-treated HepG2 cell; test: Cytochrome c oxidase activity in high glucose treated HepG2 cell; assay type: cell-based, human; conditions: compound 3 μM, 3 days, high glucose (4.5 g/L) HepG2, mean±SD, n=4
Protocol: (1) Human liver cancer cell-derived cell line HepG2 was passaged in low glucose (1 g/L) Eagle Modified Dulbecco's Medium supplemented with 10% fetal bovine serum. The cells adjusted to 3×10^5/mL using the same medium were plated on a 96 well plate and precultured overnight. The aforementioned medium was changed to high glucose (4.5 g/L) Eagle Modified Dulbecco's Medium supplemented with 5 μg/mL transferrin, compound (a) or compound (l) was added and the cell culture was continued for 3 days. The same experiment was performed without using compound (a) and compound (l) as the control group. […] (3) The DNA content was measured using PicoGreen dsDNA Quantitation Kit (Molecular Probes P-7589), and used as an index of cell number. The cytochrome c oxidase activity was determined using the Cytochrome c oxidase Assay kit (Sigma CYTOC-OX1) modified to fit a 96 well plate protocol. […] The time-course changes in the absorbance were measured by determining the absorbance at 550 nm at a delta soft kinetic mode once in 15 sec for 6 min from immediately after the start of the reaction. The cytochrome c oxidase activity was calculated as an absorbance change rate in 5 min from 1 to 6 min. […]

[3] = system: ZDF rats; test: Evaluation of anti-diabetic action in ZDF rat (blood glucose level); assay type: in vivo; conditions: male ZDF rat at 16 weeks of age; mixed diet 0.03% compound from 8 weeks of age (dose 20.9 mg/kg body weight); mean±SD; control group 652.8±23.10
Protocol: Male ZDF rats (5-week-old, Charles River Japan) were reared while allowing free-feeding of both diet and water. As the feed, a standard laboratory diet (MF; Oriental Yeast Co, Tokyo, Japan) and a mixed diet (the aforementioned standard laboratory diet containing 0.03% of compound (a)) were used. After acclimation rearing for 1 week, the body weight and glycated hemoglobin were measured, and the ZDF rats were divided into 2 groups (8 rats/group) such that the measurement values became uniform at 8 weeks of age. For the control group, the aforementioned standard laboratory diet was given, and for the compound (a) administration group, the aforementioned mixed diet was given from 8 weeks of age to 19 weeks of age.
At 16 weeks of age, the food intake in 24 hr was measured. The rats were reared at 4 rats/cage, the total amount of decrease in the diet in a can set to each cage was divided by 4 and taken as the daily food intake per rat. In addition, the dose of compound (a) was calculated from the food intake and the content of compound (a) in the mixed diet.
At 16 weeks of age, moreover, the blood was drawn from the rat tail vein using heparin as an anticoagulant. The blood sample was preserved on ice, and the plasma after centrifugation was preserved at −20° C. until measurement. The blood glucose level was measured by a biochemical automatic analyzer (Beckman Coulter, Shyncron CX5Δ).

[4] = system: Crj: CD(SD)IGS rats; test: Evaluation of hemoglobin increasing action; assay type: in vivo, rat; conditions: female Crj: CD(SD)IGS rats, 600 mg/kg/day oral, 4 weeks, mean±SD
Protocol: (1) After acclimation rearing for 1 week, female Crj: CD(SD)IGS rats (5-week-old) were divided into 2 groups (10 rats/group). (2) For one group, a suspension of compound (a), obtained by suspending compound (a) in 0.5% aqueous methylcellulose solution, was orally administered at 10 ml/kg body weight/day (dose of compound (a): 600 mg/kg body weight/day) once a day. For the other group, 0.5% aqueous methylcellulose solution was orally administered at 10 ml/kg body weight/day in the same manner, and used as the control group. (3) After 4-week administration under free-feeding conditions, the rats were fasted for 20 hr, and the whole blood was collected from the abdominal artery into a blood collection vessel (SP-U0501EM, Sekisui Chemical), and the red blood cell count, hematocrit, hemoglobin concentration, and MCH (average red blood cell hemoglobin) of the rat blood were measured. The numerical values in the Table show mean±standard deviation.

[5] = system: Wistar Fatty rats; test: Evaluation of anti-diabetic action in Wistar Fatty rats (glycosylated hemoglobin); assay type: in vivo, rat; conditions: male Wistar Fatty rats, mean±SD, n=5-6
Protocol: Lean rats in the same lot as the male Wistar Fatty rats (26 to 27-week-old; TAKEDA RABICS, lot0402) were used. Blood samples were collected from Wistar Fatty rats in the morning under non-fasting, and glycosylated hemoglobin % value (GHB %) and plasma component were measured. GHB % was measured by Tosoh automatic glycohemoglobin analyzer HLC-723 GHbV Alc2.2. The Plasma component was measured by Beckman Synchron system CX5 delta. The rats showing a GHB % value of not less than 7.5% and a high PG value were divided into 2 groups. For one group, a suspension of compound (1), obtained by suspending compound (l) in 0.5% aqueous methylcellulose solution, (dose of compound (l): 10 mg/kg body weight) was orally administered repeatedly once a day for 20 days. For the other group, 0.5% aqueous methylcellulose solution was orally administered in the same manner, and used as the control group. On the day of completion of the administration, the blood samples were collected again, and GHB % was measured. The numerical values in the Table show mean±standard deviation of n=5-6 (n is the number of rats).

| ferrochelatase activity [1] [Em 590 nm] | SMILES | Cytochrome c oxidase activity ([2]; Table 5, control group 0.649 ± 0.044) [units/μg DNA] | blood glucose level [3] [mg/dL] | hemoglobin ([4]; control group 15.3 ± 0.4) [g/dL] | MCH (average red blood cell hemoglobin) ([4]; control group 19.6 ± 0.4) [pg] | hematocrit ([4]; control group 42.5 ± 1.1) [%] | red blood cell count ([4]; control group 777 ± 21) | Cytochrome c oxidase activity ([2]; Table 6, control group 0.743 ± 0.043) | Glycosylated hemoglobin value, after drug administration ([5]; 10 mg/kg oral once a day for 20 days, control group 7.7 ± 0.2) [%] | Glycosylated hemoglobin value, amount of change ([5]; 10 mg/kg oral once a day for 20 days, control group −0.5 ± 0.2) [%] | Glycosylated hemoglobin value, before drug administration ([5]; baseline before 10 mg/kg oral once a day for 20 days) [%] |
| --- | --- | --- | --- | --- | --- | --- | --- | --- | --- | --- | --- |
| 0.609 ± 0.008 | CCOP(=O)(OCC)OCc1ccc(NC(=O)/C=C/c2cnn(C)c2-c2ccc(F)cc2)cc1 [compound (a), diethyl [4-({(2E)-3-[5-(4-fluorophenyl)-1-methyl-1H-pyrazol-4-yl]prop-2-enoyl}amino)benzyl]phosphate] | 0.757 ± 0.029 | 271.7 ± 36.5 | 16.1 ± 0.7 | 20.7 ± 0.5 | 44.7 ± 1.9 | 779 ± 32 ×10^4/μl |  |  |  |  |
| 0.655 ± 0.009 | Cn1ncc(/C=C/C(=O)Nc2ccc(CCc3nnco3)cc2)c1-c1ccc(F)cc1 [compound (l), (2E)-3-[5-(4-fluorophenyl)-1-methyl-1H-pyrazol-4-yl]-N-{4-[2-(1,3,4-oxadiazol-2-yl)ethyl]phenyl}acrylamide] |  |  |  |  |  |  | 0.990 ± 0.088 units/(μg DNA | 6.9 ± 0.4 | −1.3 ± 0.3 | 8.2 ± 0.5 |
